Measurements published in paper PMC11995724, “Antibiotic target discovery by integrated phenotypic and activity-based profiling of electrophilic fragments” (Cell chemical biology, 2025).
Counter-ions that a name gives are not always drawn.

Assay: in vitro
Conditions: human, hek293t cells

Point of comparison: `CN(C(=O)CCl)c1c(N)n(Cc2ccccc2)c(=O)[nH]c1=O` [4-E06, N-(6-amino-1-benzyl-2,4-dioxo-1,2,3,4-tetrahydropyrimidin-5-yl)-2-chloro-N-methylacetamide], viability at 48 h, 25 µM 22.8%. Against it:
- CC(Cl)C(=O)Nc1cc(Cl)cc(Cl)c1 (centres unmarked) [4-D17, 2-chloro-N-(3,5-dichlorophenyl)propanamide] — higher, 67.8%
- O=C(CCl)NCC(=O)Nc1ccc(F)c(F)c1F [4-D18, 2-chloro-N-{[(2,3,4-trifluorophenyl)carbamoyl]methyl}acetamide] — lower, 2.12%
- Cc1cccc(Cc2cnc(NC(=O)C(C)Cl)s2)c1 (centres unmarked) [4-D19, 2-chloro-N-{5-[(3-methylphenyl)methyl]-1,3-thiazol-2-yl}propanamide] — higher, 74.1%
- CC(Cl)C(=O)NCC(=O)Nc1ccc(F)c(F)c1F (centres unmarked) [4-D20, 2-chloro-N-{[(2,3,4-trifluorophenyl)carbamoyl]methyl}propanamide] — higher, 118%
- Cc1cccc(NC(=O)NC(=O)CCl)c1C [4-D21, 3-(2-chloroacetyl)-1-(2,3-dimethylphenyl)urea] — lower, 0.759%
- O=C(CCl)NCc1cccc(NC(=O)C2CC2)c1 [4-D22, N-{3-[(2-chloroacetamido)methyl]phenyl}cyclopropanecarboxamide] — lower, 1.24%
- O=C(CCl)Nc1ccc(Cl)cc1F [4-E03, 2-chloro-N-(4-chloro-2-fluorophenyl)acetamide] — lower, 0.433%
- CC(C)CNC(=O)c1ccccc1NC(=O)CCl [4-E04, 2-(2-chloroacetamido)-N-(2-methylpropyl)benzamide] — lower, 0.855%
- COc1ccc(S(=O)(=O)N(C)C)cc1NC(=O)CCl [4-E05, 2-chloro-N-[5-(dimethylsulfamoyl)-2-methoxyphenyl]acetamide] — lower, 0.891%
- Cc1c(NC(=O)CCl)cccc1[N+](=O)[O-] [4-E07, 2-chloro-N-(2-methyl-3-nitrophenyl)acetamide] — lower, 1.23%
- CC(Cl)C(=O)Nc1nc(-c2cccc([N+](=O)[O-])c2)cs1 (centres unmarked) [4-E08, 2-chloro-N-[4-(3-nitrophenyl)-1,3-thiazol-2-yl]propanamide] — higher, 59.7%
- CCN(CC)S(=O)(=O)c1cc(NC(=O)CCl)ccc1C [4-E09, 2-chloro-N-[3-(diethylsulfamoyl)-4-methylphenyl]acetamide] — lower, 0.544%
- CSC1=C(C#N)C2(CCCCC2)C(C#N)=C(NC(=O)CCl)N1 [4-E10, 2-chloro-N-[1,5-dicyano-4-(methylsulfanyl)-3-azaspiro[5.5]undeca-1,4-dien-2-yl]acetamide] — lower, 0.534%
- CSc1ccccc1NC(=O)CCl [4-E11, 2-chloro-N-[2-(methylsulfanyl)phenyl]acetamide] — lower, 0.595%
- CCn1c2ccccc2c2cc(NC(=O)C(C)Cl)ccc21 (centres unmarked) [4-E12, 2-chloro-N-(9-ethyl-9H-carbazol-3-yl)propanamide] — higher, 55.6%
- CC(C)C(NC(=O)CCl)c1ccc(F)cc1 (centres unmarked) [4-E13, 2-chloro-N-[1-(4-fluorophenyl)-2-methylpropyl]acetamide] — lower, 1.68%
- CC(Cl)C(=O)N1CCN(c2ccccc2)CC1 (centres unmarked) [4-E14, 2-chloro-1-(4-phenylpiperazin-1-yl)propan-1-one hydrochloride] — higher, 66.3%
- COc1ccc(NC(=O)CCl)cc1S(=O)(=O)N(C)C [4-E15, 2-chloro-N-[3-(dimethylsulfamoyl)-4-methoxyphenyl]acetamide] — lower, 0.774%
- O=C(CCl)N1CCCSc2ccccc21 [4-E16, 2-chloro-1-(2,3,4,5-tetrahydro-1,5-benzothiazepin-5-yl)ethan-1-one] — lower, 0.703%
- CCOC(=O)c1ccc(NC(=O)CCl)cc1 [4-E17, ethyl 4-(2-chloroacetamido)benzoate] — lower, 0.753%
- O=C(CCl)NS(=O)(=O)c1ccc(Cl)cc1 [4-E18, 2-chloro-N-(4-chlorobenzenesulfonyl)acetamide] — higher, 79.9%
- CN(CC(=O)Nc1ccc(Cl)c(C(F)(F)F)c1)C(=O)CCl [4-E19, 2-chloro-N-({[4-chloro-3-(trifluoromethyl)phenyl]carbamoyl}methyl)-N-methylacetamide] — lower, 0.379%
- COC(=O)c1c(NC(=O)CCl)sc(Cl)c1-c1ccccc1 [4-E20, methyl 5-chloro-2-(2-chloroacetamido)-4-phenylthiophene-3-carboxylate] — lower, 0.576%
- CC(C)OC(=O)c1c(NC(=O)CCl)sc2c1CCCC2 [4-E21, propan-2-yl 2-(2-chloroacetamido)-4,5,6,7-tetrahydro-1-benzothiophene-3-carboxylate] — higher, 112%
- O=C(CCl)N1N=C(c2cccc(F)c2)CC1c1cccs1 (centres unmarked) [4-E22, 2-chloro-1-[3-(3-fluorophenyl)-5-(thiophen-2-yl)-4,5-dihydro-1H-pyrazol-1-yl]ethan-1-one] — lower, 0.0972%
- COc1ccc(CN(C)C(=O)CCl)cc1F [4-F03, 2-chloro-N-[(3-fluoro-4-methoxyphenyl)methyl]-N-methylacetamide] — lower, 0.725%
- CCc1cccc(NC(=O)CCl)c1 [4-F04, 2-chloro-N-(3-ethylphenyl)acetamide] — lower, 0.569%
- CC(=O)c1cccc(S(=O)(=O)N2CCN(C(=O)CCl)CC2)c1 [4-F05, 1-[4-(3-acetylbenzenesulfonyl)piperazin-1-yl]-2-chloroethan-1-one] — lower, 0.228%
- CC(C)c1ccccc1NC(=O)CCl [4-F06, 2-chloro-N-[2-(propan-2-yl)phenyl]acetamide] — lower, 1.92%
- COC(=O)c1c(-c2ccccc2Cl)csc1NC(=O)CCl [4-F07, methyl 2-(2-chloroacetamido)-4-(2-chlorophenyl)thiophene-3-carboxylate] — lower, 5.7%
- O=C(CCl)Nc1ccc(S(=O)(=O)N2CCCC2)cc1 [4-F08, 2-chloro-N-[4-(pyrrolidine-1-sulfonyl)phenyl]acetamide] — lower, 1.07%
- O=C(CCl)Nc1cc(S(=O)(=O)N2CCCCC2)ccc1Cl [4-F09, 2-chloro-N-[2-chloro-5-(piperidine-1-sulfonyl)phenyl]acetamide] — lower, 0.505%
- CCc1cccc(CC)c1NC(=O)CCl [4-F10, 2-chloro-N-(2,6-diethylphenyl)acetamide] — higher, 99.1%
- O=C(CCl)N(CC1=CCSC1)c1ccccc1 [4-F11, 2-chloro-N-[(2,5-dihydrothiophen-3-yl)methyl]-N-phenylacetamide] — lower, 0.548%
- COc1ccc(-c2csc(NC(=O)CCl)n2)c(OC)c1 [4-F12, 2-chloro-N-[4-(2,4-dimethoxyphenyl)-1,3-thiazol-2-yl]acetamide] — lower, 0.886%
- CC(Cl)C(=O)NCC1COc2ccccc2O1 (centres unmarked) [4-F13, 2-chloro-N-[(2,3-dihydro-1,4-benzodioxin-2-yl)methyl]propanamide] — higher, 91.4%
- O=C(CCl)Nc1ccc(OC(F)F)c(Cl)c1 [4-F14, 2-chloro-N-[3-chloro-4-(difluoromethoxy)phenyl]acetamide] — lower, 0.982%
- O=C(CCl)Nc1nnc(SCc2ccccc2)s1 [4-F15, N-[5-(benzylsulfanyl)-1,3,4-thiadiazol-2-yl]-2-chloroacetamide] — lower, 0.76%
- O=C(CCl)N1CCN(CC=Cc2ccccc2)CC1 [4-F16, 2-chloro-1-[4-(3-phenylprop-2-en-1-yl)piperazin-1-yl]ethan-1-one hydrochloride] — lower, 0.223%
- COc1ccc(Cc2cnc(NC(=O)CCl)s2)cc1 [4-F17, 2-chloro-N-{5-[(4-methoxyphenyl)methyl]-1,3-thiazol-2-yl}acetamide] — lower, -0.0636%
- CC(Cl)C(=O)Nc1ccc(OC(F)F)c(Cl)c1 (centres unmarked) [4-F18, 2-chloro-N-[3-chloro-4-(difluoromethoxy)phenyl]propanamide] — higher, 91.5%
- CCc1ccc(Cc2cnc(NC(=O)CCl)s2)cc1 [4-F19, 2-chloro-N-{5-[(4-ethylphenyl)methyl]-1,3-thiazol-2-yl}acetamide] — lower, 0.0785%
- COc1ccc(-n2c(C)c(C)c(C#N)c2NC(=O)CCl)cc1 [4-F20, 2-chloro-N-[3-cyano-1-(4-methoxyphenyl)-4,5-dimethyl-1H-pyrrol-2-yl]acetamide] — lower, 0.583%
- Cc1cc(NC(=O)CCl)c([N+](=O)[O-])cc1C [4-F21, 2-chloro-N-(4,5-dimethyl-2-nitrophenyl)acetamide] — higher, 112%
- O=C(CCl)NCc1ccccc1S(=O)(=O)N1CCOCC1 [4-F22, 2-chloro-N-{[2-(morpholine-4-sulfonyl)phenyl]methyl}acetamide] — lower, 2.15%
- Cc1ccc(Sc2ccc(NC(=O)CCl)cc2)cc1C [4-G03, 2-chloro-N-{4-[(3,4-dimethylphenyl)sulfanyl]phenyl}acetamide] — lower, -0.101%
- O=C(CCl)NC(c1ccccc1)c1ccc(Cl)cc1 (centres unmarked) [4-G04, 2-chloro-N-[(4-chlorophenyl)(phenyl)methyl]acetamide] — lower, -0.0119%
- Cc1cc(NC(=O)CCl)n(-c2ccccc2)n1 [4-G05, 2-chloro-N-(3-methyl-1-phenyl-1H-pyrazol-5-yl)acetamide] — lower, 0.983%
- CC(Cl)C(=O)Nc1ccc2c(c1)C(=O)c1ccccc1C2=O (centres unmarked) [4-G06, 2-chloro-N-(9,10-dioxo-9,10-dihydroanthracen-2-yl)propanamide] — higher, 58.6%
- CC(=O)c1ccc(NC(=O)CCl)cc1 [4-G07, N-(4-acetylphenyl)-2-chloroacetamide] — lower, 0.0514%
- O=C(CCl)NCc1ccccc1CS(=O)(=O)N1CCOCC1 [4-G08, 2-chloro-N-({2-[(morpholine-4-sulfonyl)methyl]phenyl}methyl)acetamide] — lower, 0.79%
- COc1cc(NC(=O)CCl)cc(OC)c1 [4-G09, 2-chloro-N-(3,5-dimethoxyphenyl)acetamide] — lower, 8.6%
- O=C(CCl)Nc1ccccc1C(=O)Nc1ccc(Cl)cc1 [4-G10, 2-(2-chloroacetamido)-N-(4-chlorophenyl)benzamide] — lower, 0.0501%
- COc1cc(OC)c(NC(=O)CCl)cc1Cl [4-G11, 2-chloro-N-(5-chloro-2,4-dimethoxyphenyl)acetamide] — lower, 0.402%
- CC(Cl)C(=O)Nc1ccc(C(C)(C)C)cc1 (centres unmarked) [4-G12, N-(4-tert-butylphenyl)-2-chloropropanamide] — higher, 66.1%
